Reference: US20130338264A1, “CONDENSATION PRODUCTS OF MELAMINE AND PHENYLPHOSPHONIC ACID AND THEIR USE AS FLAME RETARDANTS” (BASF SE, priority 2011, published 2013)

How the values were obtained:
[1] = Decomposition by TGA (thermogravimetric analysis); assay type: physicochemical; conditions: for TGA onset [° C.]: overview table
Method: Melamine hydrogenphenylphosphonate (MPPO) from example 1 (10.000 g, 0.04 mol) is tempered in a glass tube at 300° C./5·10^−1 mbar for 2 h and additional for 22 h. The mass balance is monitored for the residual by gravimetrically methods. The obtained product is characterized by phosphorous content, 1,3,5-triazine components and thermogravimetry.
Based on the results of the thermo gravimetric analysis (TGA) of the compounds in examples A1-A5 one can conclude that the condensation of melamine hydrogene phenyphosphonate occurs in a two step mode. […] The mode of condensation therefore may be controlled in a balanced thermometric and stoichiometric approach. According to example A2-A4 in a temperature range of 280-300° C. melam formation is favoured. However, other temperature profiles could be more suitable for other stoichiometric ratios. The increasing phosphorous content in the compounds of example A2-A3 in comparison to example A5 points to the condensation of phenylphosphonic anions.

Solubility in water = assay type: physicochemical
Method: Solubility in water: 11 g/L (25° C.); 70 g/L (95° C.)

| Substance | Decomposition by TGA: onset [1] | TGA Mass loss at T ° C. [%] ([1]; T = 372 ° C.) | Decomposition by TGA: mass loss at onset ([1]; at onset 345° C., 1 molÄq H2O) | Decomposition by TGA: mass loss at onset ([1]; at onset 372° C.) | TGA onset [° C.] [1] | Decomposition by TGA: onset (second step) ([1]; second onset printed) | TGA Mass loss at T ° C. [%] ([1]; T = 320 ° C.) | Decomposition by TGA: mass loss at onset ([1]; at onset 277° C.) | Solubility in water (Solubility in water; 25° C.) | Solubility in water (Solubility in water; 95° C.) |
| --- | --- | --- | --- | --- | --- | --- | --- | --- | --- | --- |
| Melam Phenylhydrogenphosphonate [Example A5] | 345 °C | 372 [−15%] | −4.5% | −55% | 345 °C | 372 °C | – | – | – | – |
| Melamine Phenylhydrogenphosphonate (MPPO) [Example A1] | 277 °C | – | – | – | 277 °C | – | 320 [−10%] | −12% | 11 mg/mL | 70 mg/mL |
